For 23 molecules, EC50 and IC50 results are on record in US11066414B2, “Cot modulators and methods of use thereof” (Gilead Sciences, Inc., priority 2015, dated 2021).

For one test, the system named is TNFα. Put plainly: Cot Monocyte TNFα Cell Based Assay.
The target in the next test is Human Cot (Homo sapiens (Human), UniProt P41279). Put plainly: High Throughput Cot Biochemical Assay.
Setting [1] is: Homo sapiens, Monocyte, read-out: EC50 TNF, LPS-stimulated human monocytes, TNFα TR-FRET.
[2] abbreviates: IC50 HTRF, Cot HTRF (TR-FRET KinEASE) biochemical assay, 400 μM ATP.
[3] abbreviates: Homo sapiens, Monocyte, read-out: EC50 TNF, LPS-stimulated human monocytes, TNFα.
[4] abbreviates: IC50 HTRF, Cot HTRF (TR-FRET) biochemical assay.
[5] abbreviates: read-out: EC50 TNF, LPS-stimulated human monocytes, TNFα.
Setting [6] is: read-out: IC50 HTRF, Cot HTRF (TR-FRET) biochemical assay.

The EC50 is the concentration needed to bring the measured effect to its halfway point. A word on the IC50: it is the concentration needed to halve the response being measured.

Each structure is given as a SMILES string. Like-named read-outs stand apart in the source and are kept apart here.

Human Cot, sequence (P41279 30-397): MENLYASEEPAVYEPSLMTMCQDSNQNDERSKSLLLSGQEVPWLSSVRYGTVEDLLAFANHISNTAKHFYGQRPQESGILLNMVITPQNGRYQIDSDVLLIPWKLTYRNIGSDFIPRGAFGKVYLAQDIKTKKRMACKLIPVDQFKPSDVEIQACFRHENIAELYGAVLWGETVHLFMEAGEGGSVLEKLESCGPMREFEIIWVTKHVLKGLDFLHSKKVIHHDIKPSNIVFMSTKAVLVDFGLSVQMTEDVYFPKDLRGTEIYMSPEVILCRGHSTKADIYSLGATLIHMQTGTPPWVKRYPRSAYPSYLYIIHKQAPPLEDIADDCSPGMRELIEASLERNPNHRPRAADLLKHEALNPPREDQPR

Take `Cc1nc(F)ccc1[C@H](Nc1cc(C#N)c2ncc(C#N)c(NCC(C)(C)C(F)(F)F)c2c1)c1cn(C(C)(C)C)nn1` [Example 827, (S)-6-(((1-(tert-butyl)-1H-1,2,3-triazol-4-yl)(6-fluoro-2-methylpyridin-3-yl)methyl)amino)-4-((3,3,3-trifluoro-2,2-dimethylpropyl)amino)quinoline-3,8-dicarbonitrile]: the EC50 in the test on TNFα (setting [1]) was found to be 38 nM. This molecule also registered an IC50 on Human Cot (setting [2]) of 2 nM.

As to `CC(C)(C)CNc1c(C#N)cnc2c(Cl)cc(N[C@H](c3cn(C4(C(F)(F)F)CC4)nn3)c3cccc4ncsc34)cc12` [Example 417, (S)-6-((benzo[d]thiazol-7-yl(1-(1-(trifluoromethyl)cyclopropyl)-1H-1,2,3-triazol-4-yl)methyl)amino)-8-chloro-4-(neopentylamino)quinoline-3-carbonitrile], the EC50 in the test on TNFα (setting [3]) came to 218 nM. This molecule also registered an IC50 on Human Cot (setting [4]) of 9 nM.

On to `Cn1ccc2c([C@H](Nc3cc(C#N)c4ncc(C#N)c(NCC(C)(C)C)c4c3)c3cn(C4(CF)CC4)nn3)cccc2c1=O` [Example 878, (S)-6-(((1-(1-(fluoromethyl)cyclopropyl)-1H-1,2,3-triazol-4-yl)(2-methyl-1-oxo-1,2-dihydroisoquinolin-5-yl)methyl)amino)-4-(neopentylamino)quinoline-3,8-dicarbonitrile], for which, in the test on TNFα (setting [1]), the EC50 was 31 nM. In addition, it took 2 nM to reach half-maximal inhibition on Human Cot (setting [2]) (IC50).

Consider `N#Cc1cnc2c(Cl)cc(N[C@@H](c3ccc(F)nc3)c3c[nH]nn3)cc2c1Nc1cnc(F)c(F)c1` [Example 166, (S)-8-chloro-4-((5,6-difluoropyridin-3-yl)amino)-6-(((6-fluoropyridin-3-yl)(1H-1,2,3-triazol-4-yl)methyl)amino)quinoline-3-carbonitrile], for which, in the test on TNFα (setting [3]), the EC50 was determined as 1420 nM. For the same molecule, the IC50 on Human Cot (setting [4]) was 6 nM.

For the molecule `Cc1nc(F)ccc1[C@H](Nc1cc(F)c2ncc(C#N)c(NCC(C)(C)C)c2c1)c1cn(C2(C(F)(F)F)CC2)nn1` [Example 513, (S)-8-fluoro-6-(((6-fluoro-2-methylpyridin-3-yl)(1-(1-(trifluoromethyl)cyclopropyl)-1H-1,2,3-triazol-4-yl)methyl)amino)-4-(neopentylamino)quinoline-3-carbonitrile], in the test on TNFα (setting [3]), the EC50 was determined as 154 nM. The molecule also came in with an IC50 at Human Cot (setting [4]) of 9 nM.

For the molecule `CC[C@@H](Nc1c(C#N)cnc2c(Cl)cc(N[C@@H](c3cccnc3)c3cn(CCCN4CCCC4)nn3)cc12)c1ccccc1` [Example 176, 8-chloro-4-(((R)-1-phenylpropyl)amino)-6-(((S)-pyridin-3-yl(1-(3-(pyrrolidin-1-yl)propyl)-1H-1,2,3-triazol-4-yl)methyl)amino)quinoline-3-carbonitrile], the EC50 in the test on TNFα (setting [3]) amounted to 31 nM. Besides, inhibition against Human Cot (setting [4]) was half-maximal at 2 nM (IC50).

For the molecule `CC(C)(C)CNc1c(C#N)cnc2c(C#N)cc(N[C@H](c3cn(C4(C(F)F)CC4)nn3)c3cccn4nccc34)cc12` [Example 444], the EC50 in the test on TNFα (setting [5]) was 33 nM. For the same molecule, on Human Cot (setting [6]), the IC50 turned out to be 2 nM.

In the case of `N#CCC[C@@H](Nc1c(C#N)cnc2c(Cl)cc(N[C@@H](c3cccnc3)c3cn(C4CC4)nn3)cc12)c1ccccc1` [Example 75, 8-chloro-4-(((R)-3-cyano-1-phenylpropyl)amino)-6-(((S)-(1-cyclopropyl-1H-1,2,3-triazol-4-yl)(pyridin-3-yl)methyl)amino)quinoline-3-carbonitrile], the EC50 in the test with TNFα (setting [3]) is 79 nM. The same molecule registered an IC50 against Human Cot (setting [4]) of 2 nM.

As for `CC(C)(C)CNc1c(C#N)cnc2c(Br)cc(N[C@H](c3cn(C4(C(N)=O)CC4)nn3)c3cccc4ncsc34)cc12` [Example 408, (S)-1-(4-(benzo[d]thiazol-7-yl((8-bromo-3-cyano-4-(neopentylamino)-quinolin-6-yl)amino)methyl)-1H-1,2,3-triazol-1-yl)cyclopropane-1-carboxamide], the EC50 in the test with TNFα (setting [3]) is 88 nM. In addition, on Human Cot (setting [4]), the IC50 is 1 nM.

Take `COc1nccc2c([C@H](Nc3cc(Cl)c4ncc(C#N)c(NCC(C)(C)C)c4c3)c3cn(C4CC4)nn3)cccc12` [Example 912, (S)-8-chloro-6-(((1-cyclopropyl-1H-1,2,3-triazol-4-yl)(1-methoxylsoquinolin-5-yl)methyl)amino)-4-(neopentylamino)quinoline-3-carbonitrile]: the EC50 in the test on TNFα (read-out: EC50 TNF, LPS-stimulated human monocytes, TNFα TR-FRET) turned out to be 78 nM. The IC50 at Human Cot (read-out: IC50 HTRF, Cot HTRF (TR-FRET KinEASE) biochemical assay, 400 μM ATP) is 6 nM.

With `Cc1nc(F)ccc1[C@H](Nc1cc(Cl)c2ncc(C#N)c(NCC(C)(C)C)c2c1)c1nnn(C2CC2)c1F` [Example 663, (S)-8-chloro-6-(((1-cyclopropyl-5-fluoro-1H-1,2,3-triazol-4-yl)(6-fluoro-2-methylpyridin-3-yl)methyl)amino)-4-(neopentylamino)quinoline-3-carbonitrile], the EC50 in the test on TNFα (setting [3]) is 62 nM. This molecule returned an IC50 against Human Cot (setting [4]) of 3 nM.

For the molecule `[2H][C@](Nc1cc(Cl)c2ncc(C#N)c(N[C@H](CC)c3ccccc3)c2c1)(c1ccc(F)nc1)c1cn(C2CC2)nn1` [Example 155, 8-chloro-6-(((S)-(1-cyclopropyl-1H-1,2,3-triazol-4-yl)(6-fluoropyridin-3-yl)methyl-d)amino)-4-(((R)-1-phenylpropyl)amino)quinoline-3-carbonitrile], in the test on TNFα (setting [3]), the EC50 stood at 79 nM. On Human Cot (setting [4]), this molecule registered an IC50 of 2 nM.

For the molecule `Cn1ccc2c([C@H](Nc3cc(Cl)c4ncc(C#N)c(NCC(C)(C)C)c4c3)c3cn(C4(C)COC4)nn3)cccc2c1=O` [Example 760, (S)-8-chloro-6-(((2-methyl-1-oxo-1,2-dihydroisoquinolin-5-yl)(1-(3-methyloxetan-3-yl)-1H-1,2,3-triazol-4-yl)methyl)amino)-4-(neopentylamino)quinoline-3-carbonitrile], the EC50 in the test with TNFα (setting [3]) worked out at 58 nM. Further, on Human Cot (setting [4]), it took 2 nM to reach half-maximal inhibition (IC50).

Regarding `Cc1nc(Cl)ccc1[C@H](Nc1cc(Cl)c2ncc(C#N)c(Nc3ccc(F)c(Cl)c3)c2c1)c1cn(C2CCN(C(C)(C)C)CC2)nn1` [Example 318], the EC50 in the test on TNFα (setting [5]) turned out to be 271 nM. The IC50 at Human Cot (setting [6]) stood at 8 nM.

For `Cn1ccc2c([C@H](Nc3cc(Cl)c4ncc(C#N)c(NCC(C)(C)C)c4c3)c3cn(C4CCN(C(C)(C)C)CC4)nn3)cccc2c1=O` [Example 714, (S)-6-(((1-(1-(tert-butyl)piperidin-4-yl)-1H-1,2,3-triazol-4-yl)(2-methyl-1-oxo-1,2-dihydroisoquinolin-5-yl)methyl)amino)-8-chloro-4-(neopentylamino)quinoline-3-carbonitrile], the EC50 in the test with TNFα (setting [3]) came out at 57 nM. Moreover, the IC50 against Human Cot (setting [4]) came to 6 nM.

Consider `[2H]C(Nc1cc(Cl)c2ncc(C#N)c(NCC(C)(C)C)c2c1)(c1cn(C2CC2)nn1)c1cccnc1Cl` (stereo not shown) [Example 126, 8-chloro-6-(((2-chloropyridin-3-yl)(1-cyclopropyl-1H-1,2,3-triazol-4-yl)methyl-d)amino)-4-(neopentylamino)quinoline-3-carbonitrile], for which the EC50 with TNFα (setting [3]) came to 146 nM. Moreover, at Human Cot (setting [4]), the 50% inhibitory concentration (IC50) was determined as 3 nM.

`CC(C)(C)CNc1c(C#N)cnc2c(Cl)cc(N[C@H](c3cn(C4(C5CC5)CC4)nn3)c3cccc4cnccc34)cc12` [Example 682, (S)-6-(((4-(1-(1-bi(cyclopropan)]-1-yl)-1H-1,2,3-triazol-4-yl)(isoquinolin-5-yl)methyl)amino)-8-chloro-4-(neopentylamino)quinoline-3-carbonitrile]: the EC50 in the test on TNFα (setting [5]) was determined as 66 nM. In addition, at Human Cot (setting [6]), the IC50 worked out at 7 nM.

With `CC[C@@H](Nc1c(C#N)cnc2c(Cl)cc(N[C@@H](c3cccnc3)c3cn(C4CCN(C(C)(C)C)CC4)nn3)cc12)c1ccccc1` [Example 258], in the test with TNFα (setting [5]), the EC50 is 33 nM. In addition, the IC50 at Human Cot (setting [6]) amounted to 2 nM.

Turning to `Cc1ccc([C@H](Nc2cc(C#N)c3ncc(C#N)c(NCC(C)(C)C)c3c2)c2cn(C3(C(F)(F)F)CC3)nn2)cn1` [Example 828, (S)-6-(((6-methylpyridin-3-yl)(1-(1-(trifluoromethyl)cyclopropyl)-1H-1,2,3-triazol-4-yl)methyl)amino)-4-(neopentylamino)quinoline-3,8-dicarbonitrile], the EC50 in the test with TNFα (setting [1]) turned out to be 253 nM. Also, the IC50 on Human Cot (setting [2]) worked out at 22 nM.

For `N#Cc1cnc2c(Cl)cc(N[C@H](c3c[nH]nn3)c3csc4c3CCN(C3COC3)C4)cc2c1Nc1cccc(Cl)c1F` [Example 246, (S)-8-chloro-4-((3-chloro-2-fluorophenyl)amino)-6-(((6-(oxetan-3-yl)-4,5,6,7-tetrahydrothieno[2,3-c]pyridin-3-yl)(1H-1,2,3-triazol-4-yl)methyl)amino)quinoline-3-carbonitrile], in the test with TNFα (setting [3]), the EC50 was 652 nM. At Human Cot (setting [4]), this molecule registered an IC50 of 6 nM.

As for `CC(C)(C)CNc1c(C#N)cnc2c(Cl)cc(N[C@H](c3cn(C4(C)CC4)nn3)c3cccc4cnccc34)cc12` [Example 564, (S)-8-chloro-6-((isoquinolin-5-yl(1-(1-methylcyclopropyl)-1H-1,2,3-triazol-4-yl)methyl)amino)-4-(neopentylamino)-quinoline-3-carbonitrile], the EC50 in the test on TNFα (setting [3]) came to 69 nM. The molecule further registered an IC50 against Human Cot (setting [4]) of 3 nM.

Turning to `N#Cc1cnc2c(Cl)cc(N[C@@H](c3cncc(Cl)c3)c3cn(C4CC4)nn3)cc2c1Nc1cnc(F)c(F)c1` [Example 146, (S)-8-chloro-6-(((5-chloropyridin-3-yl)(1-cyclopropyl-1H-1,2,3-triazol-4-yl)methyl)amino)-4-((5,6-difluoropyridin-3-yl)amino)-quinoline-3-carbonitrile], the EC50 with TNFα (setting [3]) was 370 nM. Moreover, the IC50 against Human Cot (setting [4]) worked out at 10 nM.

With `CC[C@@H](Nc1c(C#N)cnc2c(Cl)cc(N[C@@H](c3cccnc3)c3cn(CC[N+](C)(CC)CC)nn3)cc12)c1ccccc1` [Example 212, 2-(4-((S)-((8-chloro-3-cyano-4-(((R)-1-phenylpropyl)amino)quinolin-6-yl)amino)(pyridin-3-yl)methyl)-1H-1,2,3-triazol-1-yl)-N,N-diethyl-N-methylethan-1-aminium], in the test on TNFα (setting [3]), the EC50 is 9150 nM. In addition, 44 nM corresponded to half-maximal inhibition against Human Cot (setting [4]) (IC50).
